From patent publication US9724351B2, “Compounds for the treatment of paramoxyvirus viral infections” (priority 2012, dated 2017)

Columns and labels:
[1] = tested on: Respiratory Syncytial Virus (RSV) long strain (ATCC#VR-26); test: RSV Antiviral Assay (CPE reduction assay); assay type: cell-based; details: human respiratory syncytial virus, 120 h; HEp-2 cells infected with RSV long strain, 5 days, CCK-8 readout; bins (Table 2: less than 1 μM; Table 3: equal to or higher than 1 μM and less than 50 μM); read-out: 50% effective concentration (EC50)
Procedure: CPE reduction assays are performed as described by Sidwell and Huffman et al., Appl. Microbiol. (1971) 22(5):797-801 with slight modifications. HEp-2 cells (ATCC#, CCL-23) are seeded at a density of 1,500 cells/30 μl/well into the 384-well cell plate(s) (Corning#3701) one day prior to the assay. Compounds are added into 384-well cell plates by Labcyte POD 810 Plate Assembler system. Each of the test compounds is provided to duplicate wells of a 384-well cell plate at final concentrations starting from 100 μM or 1 μM using ⅓ stepwise dilutions for 9 points. Quick-thaw Respiratory Syncytial Virus (RSV) long strain (ATCC#VR-26) stock in a 37° C. water bath. Place on ice until ready to use. Viruses are diluted to the concentration of 100 TCID50/30 μl with medium and 30 μl diluted RSV are added into related wells of 384-well cell plates. For each plate, sixteen wells are set aside as uninfected, untreated cell controls (CC), and nine wells per test plate receive virus only as a control for virus replication (VC). The final DMSO concentration of all wells is 1%. Place the plates at 37° C., 5% CO2 for 5 days.
After 5 days incubation, observe the CPE of cells in all wells. […] Six μl of cell counting kit-8 reagent (CCK-8, Dojindo Molecular Technologies Inc., CK04-20) are added to each well, which allows colorimetric assays to determine the number of viable cells through the dehydrogenase activity detection. After 3-4 hour incubation, the absorbance of each well is measured with a spectrophotometric plate reader at 450 nm wavelength, using a 630 nm filter as background according to manufacturer's instruction. The 50% effective concentration (EC50) is calculated by using regression analysis, based on the mean O.D. at each concentration of compound.

[2] = Cytotoxicity Determination; assay type: cell-based; details: human, HEp-2 cells, without addition of virus, CCK-8 readout, bins (Table 4: greater than 100 μM; Table 5: equal to or less than 100 μM and greater than 10 μM), read-out: 50% cytotoxicity concentration (CC50)
Procedure: In order to determine the compound cytotoxicity, in parallel, each of the compounds is applied to duplicate wells in a 384-well cell plate at serial final concentrations starting from 100 μM using ½ stepwise dilutions for 7 points without addition of virus. Incubate the cells at 37° C., 5% CO2 for 5 days. Add 6 μl CCK-8 into each well and incubate in a CO2 incubator at 37° C. for 3-4 hours. Read the plates to obtain the optical densities which are used to calculate 50% cytotoxicity concentration (CC50).

Compound	EC50 [1]	CC50 at 5 days [2]
CNCc1ccc(C(=O)NCC(=O)N/N=C(\CCOC)c2csc3c(F)cccc23)cc1OC [Compound 400-24]	1 to 50 µM	> 100 µM
CCCn1nc(C(=O)CNC(=O)c2ccc(OC)c(OC)c2)nc1-c1csc2c(F)cccc12 [Compound 1205]	1 to 50 µM	10 to 100 µM
COc1ccc(C(=O)NCC(=O)c2nc(-c3csc4c(F)cccc34)cc(C(C)C)c2OC)cc1OC [Compound 1341]	1 to 50 µM	> 100 µM
COc1cc(C(=O)NCC(=O)c2ccc(OC)c(-c3ccc(F)c(Cl)c3)n2)ccc1OCCN(C)C [Compound 1314]	1 to 50 µM	10 to 100 µM
COc1ccc(C(=O)NCC(O)c2ccnc(-c3csc4c(F)cccc34)n2)cc1OC (stereo not shown) [Compound 839, N-(2-(2-(7-fluorobenzo[b]thiophen-3-yl)pyrimidin-4-yl)-2-hydroxyethyl)-3,4-dimethoxy-benzamide]	1 to 50 µM	> 100 µM
COc1cc(C(=O)NCC(=O)N/N=C(/CC2CCCCC2)c2csc3c(F)cccc23)ccc1OCCO [Compound 606]	1 to 50 µM	10 to 100 µM
COc1cc(C(=O)N[C@@H](COC(C)(C)C)C(=O)c2ccc(OC)c(-c3csc4c(F)cccc34)n2)ccc1OCCO [Compound 1819]	< 1 µM	10 to 100 µM
COc1ccc(C(=O)NCC(=O)c2ccc(OC)c(-c3ccc4ccccc4c3)n2)cc1OC [Compound 1517]	1 to 50 µM	> 100 µM
CCCC/C(=N/NC(=O)CNC(=O)c1ccc(OCC)c(OC)c1)c1csc2c(F)cccc12 [Compound 462B]	< 1 µM	10 to 100 µM
COc1cc(C(=O)NCC(=O)c2ccc(OCC3CC3)c(-c3csc4c(F)cccc34)n2)ccc1OCCO [Compound 2617]	< 1 µM	> 100 µM
CNC(=O)COc1ccc(C(=O)NCC(=O)c2ccc(OC)c(-c3ccc(F)c(Cl)c3)n2)cc1OC [Compound 1321]	1 to 50 µM	10 to 100 µM
COc1ccc(C(=O)NCC(=O)c2cn(C)c(-c3csc4c(F)cccc34)n2)cc1OC [Compound 1228]	1 to 50 µM	10 to 100 µM
CCOC(=O)c1c[nH]c2c(/C=N/NC(=O)CNC(=O)c3ccc(OC)c(OC)c3)csc2c1=O [Compound 498]	1 to 50 µM	> 100 µM
COc1cc(C(=O)NCC(=O)N/N=C/c2csc3c(F)cccc23)ccc1OCCO [Compound 604]	< 1 µM	> 100 µM
COc1ccc(C(=O)NCC(=O)c2nc(-c3csc4c(F)cccc34)cn2C)cc1OC [Compound 1353]	1 to 50 µM	> 100 µM
CCc1cc(C(=O)CNC(=O)c2ccc(OCCO)c(OC)c2)nc(-c2csc3c(F)cccc23)c1 [Compound 1250]	< 1 µM	> 100 µM
COc1ccc(C(=O)NCC(=O)N/N=C(\C)c2cc3c(F)cccc3s2)cc1OC [Compound 400-3]	1 to 50 µM	> 100 µM
COc1cc(C(=O)NCC(=O)N2CCCC(c3csc4c(F)cccc34)=N2)ccc1OCCO [Compound 1101]	< 1 µM	> 100 µM
COc1ccc(C(=O)NCC(=O)N/N=C(\CCC(C)C)c2csc3ccccc23)cc1OC [Compound 455A]	< 1 µM	> 100 µM
COc1cc(C(=O)N[C@@H](C)C(=O)c2ccc(OC)c(-c3ccc(F)c(C(F)(F)F)c3)n2)ccc1OCCO [Compound 1812]	< 1 µM	10 to 100 µM
COc1cc(C(=O)NCC(=O)c2cccc(-c3csc4c(F)cccc34)n2)ccc1OCCO [Compound 1209]	< 1 µM	10 to 100 µM
COc1ccc(C(=O)NCC(=O)c2cc(N(C)C)cc(-c3csc4c(F)cccc34)n2)cc1OC [Compound 1221]	< 1 µM	> 100 µM
COc1ccc(C(=O)NCC(=O)c2ccc(-c3csc4c(F)cccc34)o2)cc1OC [Compound 1351]	1 to 50 µM	> 100 µM
COCc1ccc(C(=O)NCC(=O)N/N=C(\C)c2csc3ccccc23)cc1OC [Compound 400-6]	1 to 50 µM	> 100 µM
COc1cc(C(=O)NCC(=O)c2ccc(OC)c(-c3ccncc3)n2)ccc1OCCO [Compound 1619]	1 to 50 µM	> 100 µM

Compound	EC50 [1]	CC50 at 5 days [2]
COc1cc(C(=O)NCC(=O)c2cc(CO)cc(-c3ccc(F)c(Cl)c3)n2)ccc1OCC1CC1 [Compound 3800]	< 1 µM	10 to 100 µM
COc1cc(C(=O)NCC(=O)c2cc(C)c(OC)c(-c3csc4c(F)cccc34)n2)ccc1OCCO [Compound 2103]	< 1 µM	10 to 100 µM
COc1cc(C(=O)NCC(=O)c2cccc(-c3csc4c(F)cccc34)n2)ccc1OC1CNC1 [Compound 1251]	1 to 50 µM	> 100 µM
COc1cc(C(=O)NCC(=O)c2ccc(OC)c(-c3csc4ccncc34)n2)ccc1OCCO [Compound 1621]	1 to 50 µM	> 100 µM
CCCn1cc(-c2csc3c(F)cccc23)nc1C(=O)CNC(=O)c1ccc(OC)c(OC)c1 [Compound 1355]	1 to 50 µM	10 to 100 µM
COc1ccc(C(=O)NCC(=O)N/N=C(\CO)c2csc3ccccc23)cc1OC [Compound 442]	1 to 50 µM	> 100 µM
COCC/C(=N/NC(=O)CNC(=O)c1ccc(OCCO)c(OC)c1)c1csc2c(F)cccc12 [Compound 603B]	< 1 µM	> 100 µM
COc1ccc(C(=O)NCC(=O)c2nc(-c3csc4c(F)cccc34)cn2CC(C)C)cc1OC [Compound 1356]	1 to 50 µM	> 100 µM
CNc1ccc(C(=O)CNC(=O)c2ccc(OCCO)c(OC)c2)nc1-c1csc2c(F)cccc12 [Compound 1253]	< 1 µM	> 100 µM
COc1ccc(C(=O)NCC(=O)c2ccc(OC)c(-c3ccnc(Cl)c3)n2)cc1OC [Compound 1536]	1 to 50 µM	> 100 µM
CCOc1ccc(C(=O)NCC(=O)N/N=C(\C)c2csc3ccccc23)cc1OCC [Compound 457]	< 1 µM	10 to 100 µM
CCCC/C(=N\NC(=O)CNC(=O)c1cc(OC)c(OC)cc1Br)c1csc2ccccc12 [Compound 245]	1 to 50 µM	10 to 100 µM
CCc1cc(C(=O)CNC(=O)c2ccc(OCCO)c(OC)c2)nc(-c2coc3c(F)cccc23)c1 [Compound 2111]	< 1 µM	> 100 µM
CCCN(/N=C/c1csc2c(F)cccc12)C(=O)CNC(=O)c1ccc(OCCO)c(OC)c1 [Compound 2302]	< 1 µM	10 to 100 µM
COc1ccc(C(=O)NCC(=O)N/N=C(\C)c2csc3ccccc23)c(OC)c1OC [Compound 481]	1 to 50 µM	> 100 µM
C/C(=N\NC(=O)CNC(=O)c1ccc(N2CCCCC2)cc1)c1csc2ccccc12 [Compound 467]	1 to 50 µM	> 100 µM
COc1cc(C(=O)NCC(=O)c2ccc(OC)c(-c3csc4c(F)cccc34)n2)ccc1OCCN [Compound 1232]	< 1 µM	10 to 100 µM
COc1ccc(C(=O)NCC(=O)N/N=C(/C)c2c(OC)sc3ccccc23)cc1OC [Compound 400-14]	1 to 50 µM	> 100 µM
COc1ccc(C(=O)NCC(=O)N/N=C(/CC2CC2)c2csc3ccccc23)cc1OC [Compound 400-5]	1 to 50 µM	> 100 µM
CCCC/C(=N\NC(=O)CNC(=O)c1ccc(OCC)c(OC)c1)c1csc2c(F)cccc12 [Compound 462A]	< 1 µM	> 100 µM
CCc1cc(C(=O)CNC(=O)c2ccc(OCCO)c(OC)c2)nc(-c2csc3c(F)cccc23)c1OC [Compound 2104]	< 1 µM	10 to 100 µM
COc1ccc(C(=O)NCC(=O)c2ccc3cccnc3c2)cc1OC [Compound 1700]	1 to 50 µM	> 100 µM
COc1ccc(C(=O)NCC(=O)c2ccc(OC)c(-c3csc4c(F)cccc34)n2)cc1OC [Compound 1336]	< 1 µM	> 100 µM
COc1ccc(C(=O)NCC(=O)N/N=C(\CC#N)c2csc3ccccc23)cc1OC [Compound 456]	1 to 50 µM	> 100 µM
CCC/C(=N\NC(=O)CNC(=O)c1ccc(OC)c(OC)c1)c1csc2ccccc12 [Compound 427]	< 1 µM	> 100 µM
